Experimental data reported in the supplement of paper PMC10307832.

Columns and labels:
Dabrafenib = compound: CC(C)(C)c1nc(-c2cccc(NS(=O)(=O)c3c(F)cccc3F)c2F)c(-c2ccnc(N)n2)s1 [Dabrafenib]; experiment: relative viability (nuclei count vs DMSO), 5 days (fraction); higher = more cells survive
Method in brief: (§1)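 Acceptance criteria were a control CV below 25% and at least one doubling per plate. Lung cancer cell lines in 1536-well plates got five library-drug doses (not always all listed) √10 apart by pinning and were left 5 days with no medium change. Viability divides treated-well nuclei by vehicle-well nuclei and is the median across plates. Nuclei were counted by MetaXpress from 4× Hoechst images.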

VX-702 = compound: NC(=O)c1ccc(N(C(N)=O)c2c(F)cccc2F)nc1-c1ccc(F)cc1F [VX-702]; experiment: as above
Method in brief: as §1

| Cell Line | relative viability (Dabrafenib; 0.003 µM) | relative viability (Dabrafenib; 0.009487 µM) | relative viability (Dabrafenib; 0.03 µM) | relative viability (Dabrafenib; 0.09487 µM) | relative viability (Dabrafenib; 0.3 µM) | relative viability (VX-702; 0.02 µM) | relative viability (VX-702; 0.2 µM) | relative viability (VX-702; 0.6325 µM) | relative viability (VX-702; 2 µM) |
| --- | --- | --- | --- | --- | --- | --- | --- | --- | --- |
| NCI-H520 | 0.974 | 0.941 | 0.795 | 0.884 | 0.921 | 0.969 | 0.925 | 1.03 | 1.07 |
| ABC-1 | 0.833 | 1.06 | 0.871 | 0.844 | 1.02 | 0.979 | 0.813 | 0.903 | 1.02 |
| NCI-H1703 | 1 | 1.12 | 0.887 | 0.843 | 1.14 | 0.936 | 0.91 | 0.849 | 1.21 |
| NCI-H647 | – | 0.967 | 0.71 | 0.871 | 1.01 | 0.855 | 0.874 | 0.996 | 1.14 |
| NCI-H1793 | – | 1.29 | – | 0.761 | 1.05 | 0.916 | 0.79 | 0.968 | 0.844 |
| LU99A | 0.968 | 1.06 | 0.917 | 0.88 | 0.801 | 1.05 | 0.912 | 1.02 | 0.781 |
| BEN | – | 1.05 | – | 0.889 | 1.07 | 0.853 | 0.879 | 0.866 | 1.06 |
| EKVX | 0.693 | 1.03 | 0.932 | 0.941 | 1.14 | 0.95 | 0.863 | 0.891 | 0.923 |
| SK-LU-1 | – | 1.03 | 0.661 | 0.681 | 0.762 | 1.15 | 1.04 | 1.1 | 1.17 |
| COR-L 105 | 0.851 | 0.995 | 0.927 | 0.955 | 1.13 | 0.941 | 0.961 | 0.879 | 0.861 |
| NCI-H2170 | 0.991 | 1.01 | 0.906 | 0.815 | 0.895 | 1.09 | 0.946 | 1.05 | 1 |
| SW 1573 | 0.899 | 0.916 | 1.06 | 0.989 | 1.05 | 1.08 | 0.923 | 0.899 | 1.03 |
| NCI-H2087 | – | 1.08 | 0.853 | 0.687 | 0.898 | 1.17 | 1.01 | 0.997 | 1.08 |
| NCI-H358 | – | 1.14 | 0.932 | 1.03 | 1.17 | 0.965 | 0.857 | 0.916 | 1.1 |
| NCI-H1975 | 0.936 | 0.982 | 0.925 | 0.778 | 0.854 | 0.97 | 0.923 | 1.08 | 1.22 |
| HCC-15 | 0.942 | 1.04 | 1.04 | 0.928 | 0.921 | 0.989 | 0.982 | 1.08 | 1.03 |
| HOP-62 | 0.778 | 1.02 | 1.03 | 0.685 | 0.812 | 1.06 | 0.988 | 1.09 | 1.05 |
| NCI-H1792 | – | 0.915 | 0.877 | 0.679 | 0.806 | 0.763 | 0.87 | 0.866 | 1.05 |
| NCI-H1623 | – | 0.969 | 0.924 | 1.03 | 1.13 | 0.834 | 0.943 | 1.02 | 0.905 |
| NCI-H2228 | 0.864 | 0.987 | 0.994 | 0.902 | 0.944 | 1.11 | 1.06 | 0.84 | 1.08 |
